Legend:
[1] = Kinetic solubility of Form CS8, Form A and Form B in pH 1.0-6.8 media (HPLC); type: physicochemical; conditions: for Solubility relative to Form A of the prior art / Solubility relative to Form B of the prior art: 15 minutes
Experimental: The HPLC method parameters for solubility test in the present disclosure are as follows:
1. Column: Waters XBridge C18 150×4.6 mm, 5 μm
2. Mobile Phase: A: 0.1% TFA in H2O • B: 0.1% TFA in Acetonitrile
4. Injection Volume: 5 μL
5. Detection wavelength: 242 nm
6. Column Temperature: 40° C.
Different parts of the human body have different acidity (pH 1.0-8.0). The pH in stomach is 1.0-2.0, and the pH in the small intestine is 4.0-7.0. The stomach and small intestine are the key organs for drug dissolution and absorption, so measuring the dynamic solubility of a drug in a medium with pH 1.0-7.0 plays an important role in predicting the in vivo bioavailability.
About 20 mg of Form CS8, Form A and Form B of the prior art were suspended into 2.0 mL of 0.1 mol/L HCl aqueous solution (pH=1.0), 2.0 mL of acetic acid buffer solution (PH=4.5) and 2.0 mL of phosphate buffer solution (pH=6.8) to make suspensions. After equilibrated for 15 minutes, 30 minutes, and 1 hour, concentrations (μg/mL) of the saturated solutions were measured by HPLC.

[2] = Storage stability of Form CS8 under long-term and accelerated conditions (XRPD, HPLC); type: physicochemical; conditions: for Solid form after storage / Purity after storage / Chemical purity during storage: 6 months; for Purity after storage: initial purity 99.96%; for Time for which the form does not change / keeps stable on storage / Chemical purity during storage: drug substance
Experimental: The HPLC method parameters for purity test in the present disclosure are as follows: Approximately 30 mg of Form CS8 was stored under 25° C./60% RH and 40° C./75% RH in open or close dishes. Crystalline form and chemical impurity were checked by XRPD and HPLC, respectively. XRPD pattern overlay of Form CS8 of the present disclosure before and after being stored under 25° C./60% RH are depicted in FIG. 13. XRPD pattern overlay of Form CS8 of the present disclosure before and after being stored under 40° C./75% RH are depicted in FIG. 14.

[3] = Storage stability of Form CS8 under stress condition (XRPD); type: physicochemical; conditions: 60° C./75% RH
Experimental: Approximately 30 mg of Form CS8 was stored under 60° C./75% RH in open or close dishes. Crystalline form change of Form CS8 was tested by XRPD.

[4] = Mechanical stability: tableting under different pressures (XRPD); type: physicochemical
Source text: A certain amount of Form CS8 was compressed into pellets under different pressures with suitable tableting die. Crystalline form before and after tableting were checked by XRPD. The test results are shown in Table 14, XRPD pattern overlay is depicted in FIG. 16.

[5] = Mechanical stability: manual grinding for 5 minutes (XRPD); type: physicochemical; conditions: ground manually for 5 minutes in a mortar
Experimental: Form CS8, Form A and Form B of the prior art were ground manually for 5 minutes in a mortar, XRPD patterns were collected before and after gridding. The XRPD pattern overlay of Form CS8, Form A and Form B of the prior art are depicted in FIG. 17, FIG. 18 and FIG. 19.

[6] = Particle size distribution (laser particle size analyzer); type: physicochemical; conditions: Isopar G containing 0.2% lecithin
Experimental: The particle size distribution data in the present disclosure were acquired by an […] laser particle size analyzer of Microtrac. Microtrac […] is equipped with an SDC (Sample Delivery Controller). The test is carried out in wet mode, and the dispersion medium is Isopar G. The laser particle size analyzer parameters are as follows: [table] Approximately 20 mg of Form CS8, Form A and Form B of the prior art were added into 10 mL of Isopar G (containing 0.2% lecithin). The mixture was mixed thoroughly and transferred into the SDC. The measurement was started when the sample amount indicator is in appropriate position. The average particle diameter calculated by volume, the diameter at which 10% mass is comprised of smaller particles (D10), the diameter at which 50% mass is comprised of smaller particles (D50) and the diameter at which 90% mass is comprised of smaller particles (D90) were obtained in particle size distribution test.

[7] = Adhesiveness: material sticking to the punch; type: physicochemical; conditions: 30 mg, φ8 mm round tooling, 10 KN, held 30 s
Experimental: Approximately 30 mg of Form CS8, Form A and Form B of the prior art were weighed and then added into the dies of φ8 mm round tooling, compressed at 10 KN and held for 30 s. The punch was weighed and amount of material sticking to the punch was calculated. The compression was repeated twice and the cumulative amount, maximum amount and average amount of material sticking to the punch during compression process were recorded.

[8] = Compressibility: tensile strength of compacts; type: physicochemical; conditions: 80 mg, φ6 mm round tooling, 10 KN
Experimental: 80 mg of Form CS8, Form A and Form B of the prior art were weighed and added into the dies of φ6 mm round tooling, compressed at 10 KN manually, then stored at room temperature for 24 h until complete elastic recovery. Hardness (H) was tested with an Intelligent Tablet Hardness Tester. Diameter (D) and thickness (L) were tested with a caliper. Tensile strength of the powder was calculated with the following formula: T=2H/πDL. Under a certain force, the greater the tensile strength, the better the compressibility.

prostate cancer = conditions: clinical trials; cited from earlier work
[9] = low solubility and high permeability; cited from earlier work
[10] = pH=4.5 acetic acid buffer solution
[11] = pH=6.8 phosphate buffer solution

## CNC(=O)c1ccc(N2C(=S)N(c3cnc(C#N)c(C(F)(F)F)c3)C(=O)C23CCC3)cc1F [Form CS8, 4-[7-(6-cyano-5-trifluoromethylpyridin-3-yl)-8-oxo-6-thioxo-5,7-diazaspiro[3.4]oct-5-yl]-2-fluoro-N-methylbenzamide]
[1]; 0.1 mol/L HCl aqueous solution pH=1.0, equilibrated 15 min
  Solubility (concentration of saturated solution): 23.6 µg/mL
[1]; 0.1 mol/L HCl aqueous solution pH=1.0, equilibrated 30 min
  Solubility (concentration of saturated solution): 25.1 µg/mL
[1]; 0.1 mol/L HCl aqueous solution pH=1.0, equilibrated 1 h
  Solubility (concentration of saturated solution): 18.7 µg/mL
[1]; acetic acid buffer solution pH=4.5, equilibrated 15 min
  Solubility (concentration of saturated solution): 17.7 µg/mL
[1]; acetic acid buffer solution pH=4.5, equilibrated 30 min
  Solubility (concentration of saturated solution): 10.6 µg/mL
[1]; acetic acid buffer solution pH=4.5, equilibrated 1 h
  Solubility (concentration of saturated solution): 10.9 µg/mL
[1]; pH=1.0 HCl aqueous solution
  Solubility relative to Form A of the prior art: 3.2 times
  Solubility relative to Form B of the prior art: 19.7 times
[1]; [10]
  Solubility relative to Form A of the prior art: 3.0 times
  Solubility relative to Form B of the prior art: 16.1 times
[1]; [11]
  Solubility relative to Form A of the prior art: 3.7 times
  Solubility relative to Form B of the prior art: 19.0 times
[1]; phosphate buffer solution pH=6.8, equilibrated 15 min
  Solubility (concentration of saturated solution): 22.8 µg/mL
[1]; phosphate buffer solution pH=6.8, equilibrated 30 min
  Solubility (concentration of saturated solution): 18.9 µg/mL
[1]; phosphate buffer solution pH=6.8, equilibrated 1 h
  Solubility (concentration of saturated solution): 20.6 µg/mL
[2]; 25° C./60% RH (closed)
  Solid form after storage: From CS8
  Purity after storage: 99.96%
[2]; 25° C./60% RH (open)
  Solid form after storage: From CS8
  Purity after storage: 99.96%
[2]; 40° C./75% RH (closed)
  Solid form after storage: From CS8
  Purity after storage: 99.95%
[2]; 40° C./75% RH (open)
  Solid form after storage: From CS8
  Purity after storage: 99.95%
[2]; 25° C./60% RH
  Time for which the form does not change / keeps stable on storage: at least 6 months
  Chemical purity during storage: above 99.9%
[2]; 40° C./75% RH
  Time for which the form does not change / keeps stable on storage: at least 6 months
  Chemical purity during storage: above 99.9%
[3]
  Time for which the form does not change / keeps stable on storage: at least 2 weeks
[3]; container open or close, 2 weeks
  Solid form after storage: Form CS8
[4]; pressure 3 kN
  Crystalline form after tableting: Form CS8
[4]; pressure 7 kN
  Crystalline form after tableting: Form CS8
[4]; pressure 14 kN
  Crystalline form after tableting: Form CS8
[5]
  Crystalline form/crystallinity after grinding: doesn't change after grinding
[6]
  D10: 48.60 μm
  D50: 100.8 μm
  D90: 164.9 μm
  MV (average particle diameter calculated by volume): 104.7 μm
[7]
  Average amount of material sticking to the punch: 0.08 mg
  Maximum amount of material sticking to the punch: 0.11 mg
[8]; after 24 h at room temperature
  Diameter: 6.05 mm
  Hardness: 14.6 N
  Thickness: 2.19 mm
[8]; T=2H/πDL
  Tensile strength: 0.70 MPa

## CNC(=O)c1ccc(N2C(=S)N(c3ccc(C#N)c(C(F)(F)F)c3)C(=O)C2(C)C)cc1F [Enzalutamide]
Prostate cancer
  Share of patients in whom the drug is effective: about 70%

## CNC(=O)c1ccc(N2C(=S)N(c3cnc(C#N)c(C(F)(F)F)c3)C(=O)C23CCC3)cc1F [ARN-509, 4-[7-(6-cyano-5-trifluoromethylpyridin-3-yl)-8-oxo-6-thioxo-5,7-diazaspiro[3.4]oct-5-yl]-2-fluoro-N-methylbenzamide]
[9]
  BCS class: BCS II
